This assay deals with Prothrombin (Homo sapiens, UniProt P00734). Briefly: Inhibitory activity against human thrombin.

25 compounds from ChEMBL document CHEMBL1144900, “Synthesis and SAR of thrombin inhibitors incorporating a novel 4-amino-morpholinone sscaffold: analysis of X-ray crystal structure of enzyme inhibitor complex” (J Med Chem, 2003) can be followed below.

Bounds are passed on as bounds.

The term IC50 denotes the point on the concentration scale where inhibition reaches its midpoint. Low values mean inhibition by little substance, high ones a need for much substance. `N=C(N)c1ccc(CNC(=O)C[C@H]2OCCN(NS(=O)(=O)c3ccccc3)C2=O)cc1` returned a half-inhibitory concentration (IC50) of 37.7 µM. This counts as double-digit micromolar.
For `N=C(N)c1ccc(CNC(=O)C[C@H]2OCCN(NCCc3ccccc3)C2=O)cc1` the value was 35.6 µM.
`Cc1cc(S(=O)(=O)NN2CCOC(CC(=O)NCc3ccc(C(=N)N)cc3)C2=O)c(C)cc1Cl` (stereo not given): the IC50 turned out to be 0.164 µM.
For `N=C(N)c1ccc(CNC(=O)C[C@@H]2OCCN(NS(=O)(=O)Cc3ccccc3)C2=O)cc1` the value was 9.15 µM; for `N=C(N)c1ccc(CNC(=O)CC2OCCN(N(Cc3ccccc3)Cc3ccccc3)C2=O)cc1` (stereo not given), 19.8 µM; for `N=C(N)c1ccc(CNC(=O)CC2OCCN(Nc3cccc(N)c3)C2=O)cc1` (stereo not given), over 32 µM.
`N=C(N)c1ccc(CNC(=O)C[C@@H]2OCCN(NCCCc3ccccc3)C2=O)cc1` returned an IC50 of 4.74 µM.
As for `CC(C)OC(=O)NN1CCO[C@H](CC(=O)NCc2ccc(C(=N)N)cc2)C1=O`, the figure is 80.6 µM; as for `COc1ccc(OC)c(S(=O)(=O)NN2CCOC(CC(=O)NCc3ccc(C(=N)N)cc3)C2=O)c1` (stereo not given), 0.13 µM; as for `CC(C)(C)OC(=O)NN1CCO[C@H](CC(=O)NCc2ccc(C(=N)N)cc2)C1=O`, 54.7 µM.
For `N=C(N)c1ccc(CNC(=O)CC2OCCN(NS(=O)(=O)c3ccc(F)cc3F)C2=O)cc1` (stereo not given) the value was 8.14 µM; for `N=C(N)c1ccc(CNC(=O)C[C@H]2OCCN(NS(=O)(=O)Cc3ccccc3)C2=O)cc1`, 36.8 µM; for `N=C(N)c1ccc(CNC(=O)C[C@@H]2OCCN(NCCc3ccccc3)C2=O)cc1`, 1.79 µM.
`N=C(N)c1ccc(CNC(=O)C[C@@H]2OCCN(NCc3ccccc3)C2=O)cc1` yielded an IC50 of 10.6 µM.
In turn, `N=C(N)c1ccc(CNC(=O)C[C@H]2OCCN(N(CCCc3ccccc3)CCCc3ccccc3)C2=O)cc1` registered an IC50 of 36.2 µM. This IC50 is about 3.4-fold higher than that of the compound before.
In turn, `N=C(N)c1ccc(CNC(=O)CC2OCCN(NS(=O)(=O)c3ccc4c(c3)CCO4)C2=O)cc1` (stereo not given) displayed an IC50 of 0.486 µM.
As for `N=C(N)c1ccc(CNC(=O)C[C@H]2OCCN(NCC(=O)c3ccccc3)C2=O)cc1`, the figure is over 133 µM.
As for `N=C(N)c1ccc(CNC(=O)CC2OCCN(Nc3ccc(-c4ccccc4)cc3)C2=O)cc1` (stereo not given), the figure is 4.88 µM; as for `Cc1ccc(C)c(S(=O)(=O)NN2CCOC(CC(=O)NCc3ccc(C(=N)N)cc3)C2=O)c1` (stereo not given), 0.247 µM; as for `Cc1ccc(CCNN2CCOC(CC(=O)NCc3ccc(C(=N)N)cc3)C2=O)cc1` (stereo not given), 0.961 µM.
`N=C(N)c1ccc(CNC(=O)C[C@H]2OCCN(NCCCc3ccccc3)C2=O)cc1` returned an IC50 of 45.4 µM. Compared with the last compound, the IC50 is about 47-fold higher.
As for `N=C(N)c1ccc(CNC(=O)C[C@H]2OCCN(NC(=O)c3ccc(N)cc3)C2=O)cc1`, the figure is 150 µM; as for `N=C(N)c1ccc(CNC(=O)C[C@H]2OCCN(NC(=O)c3ccccc3)C2=O)cc1`, 106 µM.
Compound `N=C(N)c1ccc(CNC(=O)CC2OCCN(Nc3ccccc3)C2=O)cc1` (stereo not given) registered a 50% inhibitory concentration (IC50) of 34.4 µM.
As for `N=C(N)c1ccc(CNC(=O)C[C@H]2OCCN(NCc3ccccc3)C2=O)cc1`, the figure is 13.6 µM.
